The record followed here is patent US12669497B2, “Affinity labeling of DNA-linked ligands for high throughput ligand binding assays and the uses thereof” (Purdue Research Foundation, priority 2020, dated 2026).

Assay [1] has as its target dihydrofolate reductase (DHFR) (Escherichia coli, UniProt P0ABQ4). The assay is described as follows: LDA screening of LOPAC library with DNA-linked trimethoprim probe. In kind it is binding. To be noted: FIG. 2f. The method, then: (§1) FIGS. 2A-2H show the application of LDA in quantifying compounds' IC50 and screening. […] IC50 of compound 1-3 determined by LDA (FIG. 2B) and FP assay (FIG. 2C). […] DNA samples with read numbers below 2 in sequencing were excluded.
(§2) Enrichment of the probes from the two groups were well distinguished (Z′ factor=0.77), indicating a robustness suitable for HTS (FIG. 1e). To further assess well-to-well variability, this experiment was repeated with separate incubation of samples in a well plate. A similar but slightly worse Z′ factor (Z′=0.54, Fig. SX) was observed. We then used this approach to screen the Library of Pharmacologically Active Compounds (LOPAC) library against dihydrofolate reductase (DHFR), a therapeutic target for treating infections (FIG. 2f). Hit compounds within the library displaces the DNA-linked trimethoprim, leading to lower enrichment of the DNA-trimethoprim.

The target of a further assay is DHFR (Escherichia coli, UniProt P0ABQ4). Description: Validation of novel hit by FP assay (IC50). In kind it is binding. To be noted: validation of screening hit; FIG. 2g. The method, then: as §1, §2

As to `CN(CCOc1ccc(C[C@H](Nc2ccccc2C(=O)c2ccccc2)C(=O)O)cc1)c1ccccn1` [GW1929], in assay [1], the “probe recovery (enrichment of DNA-trimethoprim) in LOPAC screen” value is given as “low probe recovery”. The same molecule came in with a concentration for half-maximal inhibition (IC50) on DHFR of 7.9 µM.

By IC50 is commonly meant the midpoint of a concentration-inhibition curve. A high value points to weaker potency.
